Data as given in ChEMBL document CHEMBL3817771, “Structure-Based Design of Peptidic Inhibitors of the Interaction between CC Chemokine Ligand 5 (CCL5) and Human Neutrophil Peptides 1 (HNP1)” (J Med Chem, 2016).
Activity calls are given as the source filed them. The calls are words filed in the database; no cut-off is given here. Peptide text beside a SMILES is read from it.

Legend:
[1] = molecular target: T1, C-C motif chemokine 5/Neutrophil defensin 1 (Defensin, alpha 1) (Homo sapiens) (UniProt P13501+P59665); assay: Inhibition of CCL5 (unknown origin)-HNP1 (unknown origin) interaction in HUVEC assessed as reduction in CCL5-HNP1-driven human monocyte adhesion at 100 ug/ml pre-incubated for 5 mins before human monocyte addition; type: cell-based
[2] = molecular target: T1, C-C motif chemokine 5/Neutrophil defensin 1 (Defensin, alpha 1) (Homo sapiens); assay: Inhibition of CCL5 (unknown origin)-HNP1 (unknown origin) interaction in HUVEC assessed as CCL5-HNP1-driven human monocyte adhesion at 100 ug/ml pre-incubated for 5 mins before human monocyte addition; type: cell-based; design: scale not given: the % may be the effect or the level left

T1 sequence (P13501 whole entry, looked up): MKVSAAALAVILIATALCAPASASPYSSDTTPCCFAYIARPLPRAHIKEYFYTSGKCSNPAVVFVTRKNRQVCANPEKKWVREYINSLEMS
T1 sequence (P59665 whole entry, looked up): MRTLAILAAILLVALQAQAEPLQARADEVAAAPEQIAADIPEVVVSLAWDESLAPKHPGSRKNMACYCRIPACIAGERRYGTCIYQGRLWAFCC

Row | Compound | inhibition [1] | Activity [2] [%]
1 | CC(C)C[C@@H]1NC(=O)[C@H](CCCNC(=N)N)NC(=O)CNC(=O)[C@H](CCC(N)=O)NC(=O)[C@H](Cc2ccc(O)cc2)NC(=O)[C@H](CCCCN)NC(=O)[C@H](C)NC(=O)[C@H]([C@@H](C)O)NC(=O)CNC(=O)[C@H](Cc2ccc(O)cc2)NC(=O)[C@H](CCCNC(=N)N)NC(=O)[C@H](CCCNC(=N)N)NC(=O)[C@@H](N)CSSC[C@@H](C(N)=O)NC(=O)[C@H](C)NC(=O)[C@H](Cc2ccccc2)NC(=O)[C@H](C)NC(=O)[C@H](Cc2c[nH]c3ccccc23)NC1=O (HELM PEPTIDE1{C.R.R.Y.G.T.A.K.Y.Q.G.R.L.W.A.F.A.C.[am]}$PEPTIDE1,PEPTIDE1,1:R3-18:R3$$$V2.0) | Active | 
2 | H-RRYGTSIYQ-OH | Active | 
3 | H-RRYGTSKYQ-OH | Active | 11.8
4 | H-RRYGTSRYQ-OH | Active | 
5 | H-TYQRRSGKY-OH | inactive | 
6 | H-YQGRLWAFSS-OH | Active | 
